Assay results: ChEMBL document CHEMBL2380203, “Structure-activity relationship of cytochrome bc1 reductase inhibitor broad spectrum antifungal ilicicolin H” (Bioorg Med Chem Lett, 2013)
In brackets after ≈: the same amount, converted by molar mass.

Legend:
[1] = test system: Candida albicans; test: Antifungal activity against Candida albicans MY1055 assessed as growth inhibition after 24 hrs by liquid microdilution assay; assay type: functional; conditions: MY1055, 24 h
[2] = Inhibition of Candida albicans MY1055 NADH:cytochrome bc1 reductase
[3] = Inhibition of rat liver NADH:cytochrome bc1 reductase

| Structure (SMILES) | MIC [1] [µg/mL] | IC50 [2] [µg/mL] | IC50 [3] [µg/mL] |
| --- | --- | --- | --- |
| C/C=C/[C@@H]1[C@H]2C[C@@H](C)CC[C@@H]2C(C)=C[C@H]1C(=O)c1c(O)c(-c2ccc(O)cc2)cn(CC(N)=O)c1=O | 0.031 (≈ 0.0632 µM) | 0.04 (≈ 0.0815 µM) |  |
| C/C=C/[C@@H]1[C@H]2C[C@@H](C)CC[C@@H]2C(C)=C[C@H]1C(=O)c1c(O)c(-c2ccc(O)cc2)cn(CC(=O)OC(C)(C)C)c1=O | > 5 | > 1.6 | 1.6 (≈ 2.92 µM) |
| C/C=C/[C@@H]1[C@H]2C[C@@H](C)CC[C@@H]2[C@](C)(O)[C@H]2Oc3ncc(-c4ccc(O)cc4)c(O)c3C(=O)[C@@H]12 | > 5 | > 1 | 1 (≈ 2.22 µM) |
| C/C=C/[C@@H]1[C@H]2C[C@@H](C)CC[C@@H]2C(C)=C[C@H]1C(=O)c1c(O)c(-c2ccc(OC)cc2)cn(C)c1=O | > 1 | 0.008 (≈ 0.0173 µM) |  |
| C/C=C/[C@@H]1[C@H]2C[C@@H](C)CC[C@@H]2C(C)=C[C@H]1C(=O)c1c(O)c(-c2ccc(O)cc2)cn(CC)c1=O | 0.312 (≈ 0.676 µM) |  |  |
| C/C=C/[C@@H]1[C@H]2C[C@@H](C)CC[C@@H]2C(C)=C[C@H]1C(=O)c1c(O)c(-c2ccc(O)cc2)cn(CC#N)c1=O | 0.062 (≈ 0.131 µM) | 0.001 (≈ 0.00212 µM) | 0.8 (≈ 1.69 µM) |
| C/C=C/[C@@H]1[C@H]2C[C@@H](C)CC[C@@H]2C(C)=C[C@H]1C(=O)c1c(O)c(-c2ccc(OCC(=O)OC(C)(C)C)cc2)cn(CC(=O)OC(C)(C)C)c1=O | > 5 | > 1.6 | 1.6 (≈ 2.42 µM) |
| CC1O[C@H]1[C@@H]1[C@H]2C[C@@H](C)CC[C@@H]2[C@](C)(O)[C@H]2Oc3ncc(-c4ccc(O)cc4)c(O)c3C(=O)[C@@H]12 (stereo partly drawn) | > 5 | > 1 | 1 (≈ 2.15 µM) |
| C/C=C/[C@@H]1[C@H]2C[C@@H](C)CC[C@@H]2C(C)=C[C@H]1C(=O)c1c(OC)ncc(-c2ccc(O)cc2)c1O | > 1 | 0.02 (≈ 0.0447 µM) | > 1 |
| C/C=C/[C@@H]1[C@H]2C[C@@H](C)CC[C@@H]2C(C)=C[C@H]1C(=O)c1c(O)c(-c2ccc(OCC#N)cc2)cn(CC#N)c1=O | 1 (≈ 1.95 µM) | 0.1 (≈ 0.195 µM) |  |
| C/C=C/[C@@H]1[C@H]2C[C@@H](C)CC[C@@H]2C(C)=C[C@H]1C(=O)c1c(OC)c(-c2ccc(OC)cc2)cn(C)c1=O | > 1 | 1 (≈ 2.1 µM) |  |
| C/C=C/[C@@H]1[C@H]2C[C@@H](C)CC[C@@H]2C(C)=C[C@H]1C(=O)c1c(O)c(-c2ccc(O)cc2)cn(CC(=O)O)c1=O | > 5 | > 1 | 1 (≈ 2.03 µM) |
| C/C=C/[C@@H]1[C@H]2C[C@@H](C)CC[C@@H]2C(C)=C[C@H]1C(=O)c1c(O)c(-c2ccc(O)cc2)cn(C)c1=O | 0.25 (≈ 0.559 µM) | 0.0016 (≈ 0.00357 µM) | 0.25 (≈ 0.559 µM) |
| C/C=C/[C@@H]1[C@H]2C[C@@H](C)CC[C@@H]2[C@](C)(I)[C@H]2Oc3ncc(-c4ccc(O)c(I)c4)c(O)c3C(=O)[C@@H]12 | > 5 |  |  |
| C/C=C/[C@@H]1[C@H]2C[C@@H](C)CC[C@@H]2[C@](C)(Cl)[C@H]2Oc3ncc(-c4ccc(O)cc4)c(O)c3C(=O)[C@@H]12 | 5 (≈ 10.7 µM) | 0.2 (≈ 0.427 µM) | 1 (≈ 2.14 µM) |
| C/C=C/c1c(C(=O)c2c(O)c(-c3ccc(O)cc3)c[nH]c2=O)cc(C)c2c1C[C@@H](C)CC2 | > 1 |  |  |
| C=CCn1cc(-c2ccc(O)cc2)c(O)c(C(=O)[C@@H]2C=C(C)[C@H]3CC[C@H](C)C[C@@H]3[C@H]2/C=C/C)c1=O | 1 (≈ 2.11 µM) | 0.008 (≈ 0.0169 µM) | 1 (≈ 2.11 µM) |
| C/C=C/[C@H]1[C@@H]2C(=O)c3c(ncc(-c4ccc(O)cc4)c3O)O[C@@H]2C(C)=C2CC[C@H](C)C[C@@H]21 | > 1 | > 1 |  |
| C/C=C/[C@@H]1[C@H]2C[C@@H](C)CC[C@@H]2[C@](C)(Br)[C@H]2Oc3ncc(-c4ccc(O)cc4)c(O)c3C(=O)[C@@H]12 | > 5 | > 1 | 1 (≈ 1.95 µM) |

Other lines, results leading:

| MIC [1] [µg/mL] | IC50 [2] [µg/mL] | IC50 [3] [µg/mL] | Structure (SMILES) |
| --- | --- | --- | --- |
| 0.25 (≈ 0.395 µM) | 0.005 (≈ 0.0079 µM) | > 1 | C/C=C/[C@@H]1[C@H]2C[C@@H](C)CC[C@@H]2C(C)=C[C@H]1C(=O)c1c(O)c(-c2ccc(OC(=O)CCCCNC(=O)OC(C)(C)C)cc2)c[nH]c1=O |
| 1 (≈ 1.89 µM) | 0.01 (≈ 0.0189 µM) | > 0.8 | C/C=C/[C@@H]1[C@H]2C[C@@H](C)CC[C@@H]2C(C)=C[C@H]1C(=O)c1c(O)c(-c2ccc(OC(=O)C3CCCC3)cc2)c[nH]c1=O |
| > 5 | 0.0008 (≈ 0.00137 µM) | 0.01 (≈ 0.0171 µM) | C/C=C/[C@@H]1[C@H]2C[C@@H](COC(=O)C3CC3)CC[C@@H]2C(C)=C[C@H]1C(=O)c1c(O)c(-c2ccc(OC(=O)C3CC3)cc2)c[nH]c1=O |
| 1 (≈ 1.84 µM) | 0.005 (≈ 0.0092 µM) | > 1 | C/C=C/[C@@H]1[C@H]2C[C@@H](C)CC[C@@H]2C(C)=C[C@H]1C(=O)c1c(O)c(-c2ccc(OC(=O)c3ccsc3)cc2)c[nH]c1=O |
| 0.25 (≈ 0.556 µM) | 0.4 (≈ 0.89 µM) | 0.4 (≈ 0.89 µM) | C/C=C/[C@@H]1[C@H]2C[C@@H](CO)CC[C@@H]2C(C)=C[C@H]1C(=O)c1c(O)c(-c2ccc(O)cc2)c[nH]c1=O |
| 0.5 (≈ 1.02 µM) | 0.0021 (≈ 0.00427 µM) | > 1.6 | C/C=C/[C@@H]1[C@H]2C[C@@H](COC(C)=O)CC[C@@H]2C(C)=C[C@H]1C(=O)c1c(O)c(-c2ccc(O)cc2)c[nH]c1=O |
| 0.25 (≈ 0.483 µM) | 0.002 (≈ 0.00386 µM) | 0.008 (≈ 0.0155 µM) | C/C=C/[C@@H]1[C@H]2C[C@@H](CO)CC[C@@H]2C(C)=C[C@H]1C(=O)c1c(O)c(-c2ccc(OC(=O)C3CC3)cc2)c[nH]c1=O |
| 0.0625 (≈ 0.118 µM) | 0.0105 (≈ 0.0199 µM) | > 1 | C/C=C/[C@@H]1[C@H]2C[C@@H](C)CC[C@@H]2C(C)=C[C@H]1C(=O)c1c(O)c(-c2ccc(OC(=O)c3ccoc3)cc2)c[nH]c1=O |
| > 1 | 0.2 (≈ 0.365 µM) | > 1 | C/C=C/[C@@H]1[C@H]2C[C@@H](C)CC[C@@H]2C(C)=C[C@H]1C(=O)c1c(O)c(-c2ccc(OCC(N)=O)cc2)cn(CC(N)=O)c1=O |
| > 5 | > 1 | 1 (≈ 1.82 µM) | C/C=C/[C@@H]1[C@H]2C[C@@H](C)CC[C@@H]2C(C)=C[C@H]1C(=O)c1c(O)c(-c2ccc(OCC(=O)O)cc2)cn(CC(=O)O)c1=O |
| 0.125 (≈ 0.202 µM) | 0.004 (≈ 0.00646 µM) | > 1 | C/C=C/[C@@H]1[C@H]2C[C@@H](C)CC[C@@H]2C(C)=C[C@H]1C(=O)c1c(O)c(-c2ccc(OC(=O)CCCNC(=O)OC(C)(C)C)cc2)c[nH]c1=O |
| 0.062 (≈ 0.12 µM) | 0.002 (≈ 0.00388 µM) | > 0.8 | C/C=C/[C@@H]1[C@H]2C[C@@H](C)CC[C@@H]2C(C)=C[C@H]1C(=O)c1c(O)c(-c2ccc(OC(=O)C3CCC3)cc2)c[nH]c1=O |
| > 1 | 0.4 (≈ 0.736 µM) | > 1.6 | C/C=C/[C@@H]1[C@H]2C[C@@H](C)CC[C@@H]2C(C)=C[C@H]1C(=O)c1c(O)c(-c2ccc(OC(=O)C3CCCCC3)cc2)c[nH]c1=O |
| 0.125 (≈ 0.223 µM) | 0.01 (≈ 0.0178 µM) | > 0.8 | C/C=C/[C@@H]1[C@H]2C[C@@H](COC(=O)CC)CC[C@@H]2C(C)=C[C@H]1C(=O)c1c(O)c(-c2ccc(OC(=O)CC)cc2)c[nH]c1=O |
| 0.125 (≈ 0.265 µM) | 0.006 (≈ 0.0127 µM) | 1 (≈ 2.12 µM) | C/C=C/[C@@H]1[C@H]2C[C@@H](C)CC[C@@H]2C(C)=C[C@H]1C(=O)c1c(O)c(-c2ccc(OCC#N)cc2)c[nH]c1=O |
| 0.125 (≈ 0.255 µM) | 0.00081 (≈ 0.00165 µM) | > 1.6 | C/C=C/[C@@H]1[C@H]2C[C@@H](C)CC[C@@H]2C(C)=C[C@H]1C(=O)c1c(O)c(-c2ccc(OC(=O)CC)cc2)c[nH]c1=O |
| 0.25 (≈ 0.494 µM) | 0.008 (≈ 0.0158 µM) | > 0.8 | C/C=C/[C@@H]1[C@H]2C[C@@H](CO)CC[C@@H]2C(C)=C[C@H]1C(=O)c1c(O)c(-c2ccc(OC(=O)CC)cc2)c[nH]c1=O |
| 1 (≈ 1.76 µM) | 0.5 (≈ 0.878 µM) | > 1 | C/C=C/[C@@H]1[C@H]2C[C@@H](C)CC[C@@H]2C(C)=C[C@H]1C(=O)c1c(O)c(-c2ccc(OC(=O)/C=C/c3ccsc3)cc2)c[nH]c1=O |
| 0.312 (≈ 0.54 µM) | 0.02 (≈ 0.0346 µM) | 1.6 (≈ 2.77 µM) | C/C=C/[C@@H]1[C@H]2C[C@@H](C)CC[C@@H]2C(C)=C[C@H]1C(=O)c1c(O)c(-c2ccc(OC(=O)C/C=C/c3ccccc3)cc2)c[nH]c1=O |
| 5 (≈ 7.92 µM) | 0.2 (≈ 0.317 µM) | 1 (≈ 1.58 µM) | C/C=C/[C@@H]1[C@H]2C[C@@H](C)CC[C@@H]2C(C)=C[C@H]1C(=O)c1c(O)c(-c2ccc(OC(=O)Nc3ccc(Br)cc3)cc2)c[nH]c1=O |
| 1 (≈ 1.86 µM) | 0.008 (≈ 0.0149 µM) | 1 (≈ 1.86 µM) | C/C=C/[C@@H]1[C@H]2C[C@@H](C)CC[C@@H]2C(C)=C[C@H]1C(=O)c1c(O)c(-c2ccc(OC(=O)c3ccccc3)cc2)c[nH]c1=O |
| 0.5 (≈ 1.02 µM) | 0.16 (≈ 0.325 µM) | > 0.8 | C/C=C/[C@@H]1[C@H]2C[C@@H](CO)CC[C@@H]2C(C)=C[C@H]1C(=O)c1c(O)c(-c2ccc(OC(C)=O)cc2)c[nH]c1=O |
| 0.125 (≈ 0.175 µM) | 0.006 (≈ 0.00842 µM) | 1 (≈ 1.4 µM) | C/C=C/[C@@H]1[C@H]2C[C@@H](C)CC[C@@H]2C(C)=C[C@H]1C(=O)c1c(O)c(-c2ccc(OC(=O)CNC(=O)OCC3c4ccccc4-c4ccccc43)cc2)c[nH]c1=O |
| 0.25 (≈ 0.559 µM) | 0.003 (≈ 0.0067 µM) | 0.2 (≈ 0.447 µM) | C/C=C/[C@@H]1[C@H]2C[C@@H](C)CC[C@@H]2C(C)=C[C@H]1C(=O)c1c(O)c(-c2ccc(OC)cc2)c[nH]c1=O |
